Measured values reported in paper PMC12876990, “Targeting secreted PLA2 interactions with EGFR and vimentin to arrest prostate tumour growth” (Cell Death & Disease, 2025).
Square brackets hold non-standard residues; d marks the D form. Peptide text beside a SMILES is read from it. 2Nal = N[C@@H](Cc1ccc2ccccc2c1)C(=O)O

Columns and labels:
[1] = Toxicity and serum enzyme levels in PCa xenograft model mice; assay type: in vivo
Experimental: Fig. 1 Derived from the structure of hGIIA, cF and c2 are orally absorbed, cell permeable and non-toxic. a Structure of hGIIA showing disulphide bonds (yellow) and the location of the peptide sequence ^70FLSYK^74 (cyan), which was cyclised to produce pentapeptide cF, then modified to produce c2. b Plasma concentrations of tritiated cF (red) and c2 (blue) following subcutaneous (sc) administration (circles) or oral (po) administration (squares) at 5 mg/kg to BALB/c mice (mean ± SE, n = 4 per time point). Tissue concentrations of c cF and d c2 following sc administration determined in the liver (blue) and kidney (brown) (mean ± SE). Dashed lines indicate estimated background levels of tritium in tissues due to tissue blood content (10% of peak plasma concentration). e–i Following po administration of c2 at 100 mg/kg to male rats (n = 5 per group), levels of c2 were measured in e plasma, f kidney, g faeces, h urine and i liver at timepoints indicated via LCMS/MS (mean ± SE). j Serum enzyme levels of markers of kidney function (creatinine), liver damage (AST and ALT) and heart damage (CK) in PCa xenograft model mice in response to treatment with vehicle (po, 3 x weekly for 6.1 ± 1.6 weeks), cF (10 mg/kg, po, 3 x weekly for 5.4 ± 0.9 weeks) or c2 (10 mg/kg, po, 3 x weekly for 4.8 ± 0.8 weeks) (n = 4, mean ± SE). Data were obtained by the South Eastern Area Laboratory Services Pathology Laboratory at Prince of Wales Hospital, Randwick, Australia. k PCa cell lines LNCaP, PC-3, and DU145 cells incubated with 100 µM c2 (green) for 24 hours with DAPI (blue), scale bar 10 µm (representative cells of n = 3 biological replicates, 5 cells per replicate).
A key failing of previous enzymatic inhibitors of hGIIA was toxicity, resulting in increased incidence of myocardial infarction in a phase III clinical trial. Thus, the toxicity profile of novel hGIIA inhibitors is critically important in evaluating new inhibitors. […] Extensive histopathology was performed on all animals in the control and high dose groups sacrificed on day 29, with no difference observed between the treated groups and the vehicle control group by any measure. […] In light of the toxicity associated with the myocardial infarction study, data from this c2 toxicity study relevant to heart toxicity are shown in Table 1. Heart wet weight was not affected by either low or high dose relative to vehicle, indicating the compound has no significant pro-hypertrophy effect at these doses. The lack of effect of c2 on gross necropsy or histopathology scores also supports the preclinical safety of the compound in the heart. Importantly, c2 has no effect on serum potassium levels or the Na/K ratio, since hypokalemia (low potassium) is highly arrythmogenic. […] It is of interest also that serum alanine transaminase is unaffected by c2 at the doses tested, since this marker was raised three-fold over the normal range in 6.3-fold more patients on varespladib than placebo in the VISTA acute coronary syndrome trial of this sPLA2 inhibitor [13].

[2] = 28-day oral toxicity study: body weights; assay type: in vivo, male Sprague Dawley rats
Experimental: 3.6. Procedure for test item administration
intragastric cannula attached to a 3 mL syringe.
3.7. Observation of animals
groups: Day 29; recovery groups: Day 43).
(Appendix C Study Data Spreadsheets).
report (Appendix C Study Data Spreadsheets). […]

[3] = 28-day oral toxicity study: biochemistry analysis; assay type: in vivo, male Sprague Dawley rats
Experimental: Blood analyse s (haematology and biochemistry) w ere performed on all animals on Day 29 (main groups) or Day 43 (recovery groups). Approximately 4 mL of blood was taken from ea ch animal by cardiac puncture using a 10 mL syringe and 21-gauge needle. The procedure involved anaesthetising by intraperitoneal injection of sodi um pentobarbitone using a 2 mL sterile plastic syringe attached to a 26-gauge needle (Terumo).
For each blood sampling, the blood was divided into two aliquots: (i) one was placed into a tube containing EDTA (for whole blood and EDTA plasma), (ii) one aliquot into a Li-heparin tube. […]
Results and methods of analysis were attached in an appendix to the report (Appendix D Haematology and Biochemistry). Blood smear s for cell morphology were prepared. […]
3.9.2. Biochemistry analysis
The following parameters were analysed: glucose (Glu), urea, creatinine (Creat), total protein (TP), albumin (ALB), albumin/globulin ratio (A:G), total bilirubin (TBil), alkaline phosphatase (ALP), aspartate aminotransferase (AST), alanine aminotransferase (ALT), creatine kinase (CK), chole sterol (Chol), calcium (Ca), phosphate (Phos), Ca:P ratio, sodium (Na), potassium (K), Na:K ratio, chloride (Cl), globulin (Glob), gamma glutamyl transferase (GGT) and triglycerides (Trig).
Haematology and Biochemistry). […]
(Appendix C Study Data Spreadsheets). […]

[4] = 28-day oral toxicity study: feed consumption
Experimental: The calculated volumetric do se wa s administered to each rat orally by gav age, using a plastic
Two dose level s of 1 and 20 mg/kg of the te st it em susp ension were administered to each rat
every 3 days (total 10 do ses) for 28 days. This c orresponded to volumetric dose of 10.09 and
10.23 mL/kg. The volumetric dose administered to each animal was calculated on Days 1, 8, 15
Feed consumption was monitored weekly over the 28-day experimental period in all groups
and was continued for a further 2 weeks in the recovery groups (42-day experimental
period). Feed intake was monitored by providing a known mass of feed to each cage and
subtracting the mas s remaining at the end of th e weekly period. Animals were fa sted
overnight on either Day 28 (main groups) or Day 42 (recovery groups).

[5] = 28-day and 42-day experimental period
[6] = Day 43, Gr 5 recovery, 20 mg/kg

CC(C)C[C@@H]1NC(=O)[C@H](Cc2ccc3ccccc3c2)NC(=O)[C@H](CCCNC(=N)N)NC(=O)[C@H](Cc2ccc3ccccc3c2)NC(=O)[C@H](CO)NC1=O [c2, cyclo-((2-Nal)-Leu-Ser-(2-Nal)-Arg)] (cyclo([2Nal]LS[2Nal]R))
serum creatinine, aspartate aminotransferase, alanine aminotransferase, creatine kinase levels ([1]; 10 mg/kg po thrice weekly): no significant changes | damage to organs ([1]; 10 mg/kg thrice weekly for 10 weeks): no observable damage to organs | gross toxicity ([1]; max dosages of 10 mg/kg thrice weekly for 10 weeks): No gross toxicity | percentage body weight gain ([2]; 4-week observation period, Gr 2, 1 mg/kg): 55.4 ± 8.84% | body weight gains vs vehicle control [2, 5]: comparable | Mean body weight ([2]; Day 1, Gr 2, 1 mg/kg): 261 ± 14.0 g | Mean body weight ([2]; Day 1, Grs 3 & 5, 20 mg/kg): 257 ± 11.3 g | Mean body weight ([2]; Day 8, Gr 2, 1 mg/kg): 312 ± 15.3 g | Mean body weight ([2]; Day 8, Grs 3 & 5, 20 mg/kg): 312 ± 14.1 g | Mean body weight ([2]; Day 15, Gr 2, 1 mg/kg): 356 ± 22.3 g | Mean body weight ([2]; Day 15, Grs 3 & 5, 20 mg/kg): 354 ± 20.8 g | Mean body weight ([2]; Day 22, Gr 2, 1 mg/kg): 387 ± 24.9 g | Mean body weight ([2]; Day 22, Grs 3 & 5, 20 mg/kg): 392 ± 24.5 g | Mean body weight ([2]; Day 28, Gr 2, 1 mg/kg): 406 ± 31.0 g | Mean body weight ([2]; Day 28, Grs 3 & 5, 20 mg/kg): 414 ± 27.3 g | Mean body weight ([2]; Day 29 after overnight fasting, Gr 2, 1 mg/kg): 395 ± 28.0 g | Mean body weight ([2]; Day 29 after overnight fasting, Gr 3, 20 mg/kg): 395 ± 31.5 g | Mean body weight ([2]; Day 36, Gr 5 recovery, 20 mg/kg): 458 ± 12.0 g | Mean body weight ([2]; Day 42, Gr 5 recovery, 20 mg/kg): 480 ± 11.6 g | Mean body weight ([2]; Day 43 after overnight fasting, Gr 5 recovery, 20 mg/kg): 460 ± 12.3 g | body weight gain ([2]; Week 1, Gr 2, 1 mg/kg): 19.6 ± 2.49% | ALT (serum alanine transaminase) ([3]; 1 mg/kg): 61.1 ± 15.53 IU/L | CK (serum creatine kinase) ([3]; 1 mg/kg): 164 ± 47.4 IU/L | K (serum potassium) ([3]; 1 mg/kg): 3.59 ± 0.137 mM | Na/K ratio ([3]; 1 mg/kg): 40.5 ± 1.59 | ALT (serum alanine transaminase) ([3]; 20 mg/kg): 64.7 ± 19.01 IU/L | CK (serum creatine kinase) ([3]; 20 mg/kg): 140 ± 34.4 IU/L | K (serum potassium) ([3]; 20 mg/kg): 3.66 ± 0.295 mM | Na/K ratio ([3]; 20 mg/kg): 39.9 ± 3.16 | ALP ([3]; Day 29, Gr 2, 1 mg/kg): 219 ± 37.4 IU/L | AST ([3]; Day 29, Gr 2, 1 mg/kg): 173 ± 69.4 IU/L | CK ([3]; Day 29, Gr 2, 1 mg/kg): 164 ± 47.4 IU/L | Na ([3]; Day 29, Gr 2, 1 mg/kg): 145 ± 0.7 mmol/L | ALP ([3]; Day 29, Gr 3, 20 mg/kg): 234 ± 35.7 IU/L | ALT ([3]; Day 29, Gr 3, 20 mg/kg): 64.7 ± 19.01 IU/L | AST ([3]; Day 29, Gr 3, 20 mg/kg): 163 ± 76.8 IU/L | CK ([3]; Day 29, Gr 3, 20 mg/kg): 140 ± 34.4 IU/L | Na ([3]; Day 29, Gr 3, 20 mg/kg): 145 ± 0.8 mmol/L | ALP [3, 6]: 144 ± 24.2 IU/L | ALT [3, 6]: 62 ± 20.2 IU/L | AST [3, 6]: 236 ± 106.7 IU/L | CK [3, 6]: 117 ± 36.0 IU/L | Na [3, 6]: 144 ± 0.4 mmol/L | TP [3, 6]: 62 ± 1.7 g/L | Cl ([3]; rat, in vivo, 1 mg/kg): 101 ± 1.2 mmol/L | feed intake vs control [4, 5]: similar | Mean feed intake/cage/week ([4]; Week 1, Gr 2, 1 mg/kg, 5 animals/cage): 801 ± 26.9 g | Mean feed intake/cage/week ([4]; Week 1, Grs 3 & 5, 20 mg/kg): 819 ± 55.4 g | Mean feed intake/cage/week ([4]; Week 2, Gr 2, 1 mg/kg): 839 ± 12.0 g | Mean feed intake/cage/week ([4]; Week 2, Grs 3 & 5, 20 mg/kg): 877 ± 45.1 g | Mean feed intake/cage/week ([4]; Week 3, Gr 2, 1 mg/kg): 845 ± 0 g | Mean feed intake/cage/week ([4]; Week 3, Grs 3 & 5, 20 mg/kg): 916 ± 35.2 g | Mean feed intake/cage/week ([4]; Week 4, Grs 3 & 5, 20 mg/kg): 815 ± 42.0 g | Mean feed intake/cage/week ([4]; Week 5, Gr 5 recovery, 20 mg/kg): 1013 g | Mean feed intake/cage/week ([4]; Week 6, Gr 5 recovery, 20 mg/kg): 802 g | Mean feed intake/cage/week ([4]; week 4, Gr 2, 1 mg/kg): 775 ± 27.6 g
